Measurements as given in PubChem BioAssay (NCI).
Values joined by “and” are separate entries in the source; they are usually repeats but may differ in a detail not shown here. Equal values may be shown once.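 The compound was tested at five concentrations on cells cultured in 96-well plates, with a 48-hour exposure period. Abbreviation: GI50, concentration required for 50% inhibition of growth. TGI: concentration producing complete growth inhibition.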

Assays:
Assay in all cases: NCI-60 cell line screen, 48 h
SW-620 colon = test system: SW-620 colon
HCT-116 colon = test system: HCT-116 colon
OVCAR-4 ovarian = test system: OVCAR-4 ovarian
NCI/ADR-RES ovarian = test system: NCI/ADR-RES ovarian
SNB-19 CNS = test system: SNB-19 CNS
CAKI-1 renal = test system: CAKI-1 renal
HCC-2998 colon = test system: HCC-2998 colon
SNB-75 CNS = test system: SNB-75 CNS
UACC-257 melanoma = test system: UACC-257 melanoma
A549 NSCLC = test system: A549 NSCLC

Row | Compound | GI50 (SW-620 colon) | TGI (SW-620 colon) | GI50 (HCT-116 colon) | TGI (HCT-116 colon) | GI50 (OVCAR-4 ovarian) | TGI (OVCAR-4 ovarian) | GI50 (NCI/ADR-RES ovarian) | TGI (NCI/ADR-RES ovarian) | GI50 (SNB-19 CNS) | TGI (SNB-19 CNS) | GI50 (CAKI-1 renal) | TGI (CAKI-1 renal) | GI50 (HCC-2998 colon) | TGI (HCC-2998 colon) | GI50 (SNB-75 CNS) | TGI (SNB-75 CNS) | GI50 (UACC-257 melanoma) | TGI (UACC-257 melanoma) | GI50 (A549 NSCLC) | TGI (A549 NSCLC)
1 | CCN(CC)CCCC(C)Nc1c(-c2ccccc2)cnc2cc(Cl)ccc12 (centres undefined) | 9.04 µM | 22.8 µM | 3720 nM | 15.2 µM | 10.3 µM | 36.4 µM | 11600 nM | 28.3 µM | 16.6 µM | 57.7 µM | 2120 nM | 10.9 µM | 2.34 µM | 5.62 µM | 13.7 µM | 45.3 µM | 2460 nM | 6.28 µM | 8.2 µM | 40.7 µM
2 | C[C@@H]1COCCN1c1cc(-c2ccnn2C)c2ccnc(-c3ccn[nH]3)c2n1 | 0.259 µM and 0.603 µM | > 100 µM | 159 nM and 228 nM | 16.3 µM and > 59 µM | 0.109 µM and 0.181 µM | 1.74 µM | 101 nM and 280 nM | 2.43 µM and 4.78 µM | 0.23 µM and 0.31 µM | > 100 µM | 125 nM and 223 nM | 0.9 µM and 1.8 µM | 0.0277 µM and 0.0581 µM | 18.6 µM and > 100 µM | 0.087 µM and 0.219 µM | 0.596 µM and 1.8 µM | 264 nM and 721 nM | 2.81 µM and 6.9 µM | 0.0623 µM and 0.19 µM | 
3 | NCCC(=O)NC(Cc1cnc[nH]1)C(=O)O (centres undefined) |  | > 100 µM |  | > 100 µM |  | > 100 µM |  | > 100 µM |  | > 100 µM |  | > 100 µM |  | > 100 µM |  | > 100 µM |  | > 100 µM |  | > 100 µM
4 | COc1cccc2c1[C@H]1CO[C@H]3C4C[C@H](C(=O)O)C([C@@H](C2)N13)N4C (some centres undefined) | 3.61 µM | 8.4 µM and 5.82 µM |  |  | 0.99 µM | 8.21 µM and 10.5 µM |  | 7.74 µM | 3.81 µM | > 100 µM | 2170 nM and 2900 nM | 6.06 µM and 28.8 µM | 0.593 µM | 8.08 µM and 1.2 µM | 0.809 µM | 4.85 µM and 3.53 µM | 703 nM | 5.15 µM and 1.81 µM | 10.1 µM | 99 µM
5 | CCOC(=O)C1=C(C)N2C(=NC3=C(CCC/C3=C\c3ccc(Cl)cc3)C2c2ccc(Cl)cc2)S1 (centres undefined) | 2.44 µM | 6.39 µM | 1400 nM | 2.7 µM | 2.85 µM | 19.2 µM | 2560 nM | 7.04 µM | 3.35 µM | > 100 µM | 5080 nM | > 100 µM | 1.79 µM | 3.19 µM | 9.11 µM | 51.3 µM | 2050 nM | 5.18 µM | 2.08 µM | 5.13 µM
6 | C=CCCCOC1[C@H](OCc2ccccc2)C(OCc2ccccc2)C(OC)O[C@@H]1CNC(=O)c1cccc(I)c1 (some centres undefined) | 4.62 µM | > 100 µM | 4300 nM | > 100 µM | 14.4 µM | > 100 µM | 5260 nM | > 100 µM | 6.35 µM | > 100 µM | 11500 nM | > 100 µM | > 100 µM | > 100 µM | 3.91 µM | 56.5 µM | 8820 nM | > 100 µM | 8.17 µM | > 100 µM
7 | N#CC(C#N)=C(N)/C(C#N)=C/c1ccc2[nH]ccc2c1 |  | > 100 µM |  | > 100 µM |  | > 100 µM |  | > 100 µM |  | > 100 µM |  | > 100 µM |  | > 100 µM |  | > 100 µM |  | > 100 µM |  | > 100 µM
8 | C=C1CC[C@@H]2[C@](C)(COC(C)=O)[C@H](OC(C)=O)CC[C@@]2(C)[C@@H]1CC(Nc1ccc(S(=O)(=O)Nc2nccs2)cc1)C1=CCOC1=O (some centres undefined) | 1.85 µM | 3.98 µM | 1750 nM | 3.75 µM | 4.53 µM | 17.7 µM | 2970 nM | 12.7 µM | 4.36 µM | 16.1 µM | 3800 nM | 14.2 µM | 7.78 µM | 21.3 µM | 2.83 µM | 15.6 µM | 2550 nM | 5.61 µM | 3.67 µM | 11.2 µM
9 | NS(=O)(=O)c1cccc(-c2ccc3c(NC(=O)C4CC4)n[nH]c3c2)c1 | > 15.1 µM | > 25 µM | > 16900 nM | > 25 µM | 16.7 µM | > 25 µM | > 25000 nM | > 25 µM | 20.4 µM | > 25 µM | > 25000 nM | > 25 µM | > 22.1 µM | > 25 µM | > 13.8 µM | > 25 µM | > 18100 nM | > 25 µM | > 25 µM | > 25 µM
10 | Nc1n[nH]c(N)c1N=Nc1ccc(O)cc1 | 26.3 µM | 84.8 µM | 18900 nM | 89.9 µM | 19 µM | 74.7 µM | 22600 nM | 92.4 µM | 29.8 µM | > 100 µM | 14700 nM | 63.9 µM | 29.4 µM | > 100 µM | 18.5 µM | 41.6 µM | 24400 nM | 85.1 µM | 22.5 µM | > 100 µM
11 | COc1ccc2c(c1)/C(=C\c1c[nH]c3ccc(OC)cc13)C(=O)N2 | 2.77 µM | 11 µM | 2450 nM | 10.6 µM | 3.5 µM | 22.8 µM | 2650 nM | 8.25 µM | 6.66 µM | 20.1 µM | 2130 nM | 13.3 µM | 3.77 µM | 14.7 µM | 1.94 µM | 9.22 µM |  |  |  | 
12 | O=C1CSC(c2ccccc2O)N1c1nnc(Cn2ccnc2)o1 (centres undefined) | 5.14 µM | 32.4 µM | 9860 nM | 43.7 µM | 4.51 µM | 37.2 µM | 3180 nM | 29.6 µM |  |  | 2190 nM | 10.2 µM | 22.8 µM | 89.5 µM | 11.6 µM | > 100 µM | 16000 nM | 40.6 µM | 35.5 µM | > 100 µM
13 | Cc1oc2c(c1C(=O)N1CC[C@@H](N)C1)C(=O)c1c(c(O)c3ccccc3c1O)C2=O | 1.08 µM | 7.28 µM | 1280 nM | 4.59 µM | 2.92 µM | 11.8 µM | 2390 nM | 8.56 µM | 2.45 µM | 15.7 µM | 611 nM | 11.4 µM | 3.11 µM | 11.7 µM | 2.11 µM | 15.4 µM |  |  |  | 
14 | CCSc1nc(N)c(C#N)c(-c2ccco2)c1C#N | 42.2 µM | > 100 µM | 26800 nM | > 100 µM | > 100 µM | > 100 µM | 34000 nM | > 100 µM | 51.2 µM | > 100 µM | 13700 nM | 67.6 µM |  |  | > 100 µM | > 100 µM | 31700 nM | 80.2 µM | 41.4 µM | > 100 µM
